Test results reported in patent US8871753B2, “Macrocyclic compounds and their use as kinase inhibitors” (Incyte Corporation, priority 2008, dated 2014).
Where a name gives a salt, the structure may show the parent alone. Read-outs that look alike come from different tables or passages of the source.

Columns and labels:
Type in all cases: biochemical
[1] = biological target: T1, human JAK2 (a.a. 828-1132) (Homo sapiens, UniProt O60674); assay: In vitro JAK kinase assay (HTRF, phosphorylation of a biotinylated peptide), JAK2
T1 construct: JAK2 (a.a. 828-1132); His tag (N); made in house; host or cells: insect cells (baculovirus)
In short: (§1)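 Kinase reactions ran at room temperature for 1 h with ATP matched per isoform (JAK1 90 μM, JAK2 30 μM, JAK3 3 μM). After an EDTA stop, the phosphorylated biotin-peptide was read by HTRF using Eu-Py20 and SA-APC after 40 min binding.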

[2] = biological target: T2, Recombinant Human Anaplastic Lymphoma Kinase (Homo sapiens, UniProt Q9UM73); assay: ALK HTRF kinase assay
T2 construct: purchased Invitrogen, Carlsbad, Calif
In short: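 TR-FRET read-out (Eu anti-pTyr antibody + streptavidin-APC) of biotin-peptide phosphorylation by recombinant human enzyme; IC50 by sigmoidal fit with top/bottom baselines and Hill slope.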

[3] = biological target: TYK2 (Homo sapiens, UniProt P29597); assay: TYK2 kinase inhibition (Table A1)
[4] = biological target: T3, human JAK3 (a.a. 781-1124) (Homo sapiens, UniProt P52333); assay: In vitro JAK kinase assay (HTRF, phosphorylation of a biotinylated peptide), JAK3
T3 construct: JAK3 (a.a. 781-1124); His tag (N); made in house; host or cells: insect cells (baculovirus)
In short: as §1

[5] = biological target: T4, human JAK1 (a.a. 837-1142) (Homo sapiens, UniProt P23458); assay: In vitro JAK kinase assay (HTRF, phosphorylation of a biotinylated peptide), JAK1; settings: read-out: JAK1 IC50
T4 construct: human JAK1 (a.a. 837-1142); His tag (N); made in house; host or cells: insect cells (baculovirus)
In short: as §1

[6] = compound at a concentration of 500 nM or 1 mM (not specified), cells shown as percentage
[7] = method AA1 (30 μM ATP) or AA2 (1000 μM ATP), not stated per value
[8] = compound at 500 nM or 1 mM, 90 μM ATP
[9] = method AA1 (3 μM ATP) or AA2 (1000 μM ATP), not stated per value
[10] = method AA1 (90 μM ATP) or AA2 (1000 μM ATP), not stated per value
[11] = percentage inhibition of the example compound at a concentration of 500 nM or 1 mM (not specified which)

Sequence of TYK2 (P29597 whole entry): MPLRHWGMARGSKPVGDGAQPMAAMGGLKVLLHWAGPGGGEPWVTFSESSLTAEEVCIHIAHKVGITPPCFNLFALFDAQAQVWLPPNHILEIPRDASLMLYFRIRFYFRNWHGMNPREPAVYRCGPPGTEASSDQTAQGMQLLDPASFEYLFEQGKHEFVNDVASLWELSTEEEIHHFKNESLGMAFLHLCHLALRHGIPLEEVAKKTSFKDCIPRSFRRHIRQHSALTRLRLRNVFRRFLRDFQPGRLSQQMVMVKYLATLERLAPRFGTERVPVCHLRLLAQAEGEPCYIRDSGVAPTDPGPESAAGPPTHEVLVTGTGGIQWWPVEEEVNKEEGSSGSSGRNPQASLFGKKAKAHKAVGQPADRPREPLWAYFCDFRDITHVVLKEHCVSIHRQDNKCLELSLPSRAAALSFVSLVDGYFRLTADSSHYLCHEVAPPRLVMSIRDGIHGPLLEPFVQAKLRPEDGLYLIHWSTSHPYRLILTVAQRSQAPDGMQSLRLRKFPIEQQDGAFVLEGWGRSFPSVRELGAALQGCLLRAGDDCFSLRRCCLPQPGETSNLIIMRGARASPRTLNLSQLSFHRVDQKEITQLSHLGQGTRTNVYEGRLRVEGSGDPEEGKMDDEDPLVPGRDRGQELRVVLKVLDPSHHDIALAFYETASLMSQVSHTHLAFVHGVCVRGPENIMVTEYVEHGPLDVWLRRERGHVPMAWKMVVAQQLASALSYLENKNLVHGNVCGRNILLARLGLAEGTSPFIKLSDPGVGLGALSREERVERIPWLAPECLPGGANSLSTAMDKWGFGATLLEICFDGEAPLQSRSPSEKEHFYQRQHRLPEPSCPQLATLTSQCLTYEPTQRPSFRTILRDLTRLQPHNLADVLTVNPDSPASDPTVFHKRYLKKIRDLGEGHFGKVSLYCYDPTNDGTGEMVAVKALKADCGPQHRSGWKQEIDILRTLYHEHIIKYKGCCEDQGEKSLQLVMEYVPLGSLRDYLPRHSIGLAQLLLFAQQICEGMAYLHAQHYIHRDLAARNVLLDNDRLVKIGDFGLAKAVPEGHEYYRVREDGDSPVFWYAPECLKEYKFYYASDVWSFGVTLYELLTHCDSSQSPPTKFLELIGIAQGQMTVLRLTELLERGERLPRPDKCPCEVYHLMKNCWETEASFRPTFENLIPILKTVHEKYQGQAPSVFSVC
T2 sequence (Q9UM73 19-1620): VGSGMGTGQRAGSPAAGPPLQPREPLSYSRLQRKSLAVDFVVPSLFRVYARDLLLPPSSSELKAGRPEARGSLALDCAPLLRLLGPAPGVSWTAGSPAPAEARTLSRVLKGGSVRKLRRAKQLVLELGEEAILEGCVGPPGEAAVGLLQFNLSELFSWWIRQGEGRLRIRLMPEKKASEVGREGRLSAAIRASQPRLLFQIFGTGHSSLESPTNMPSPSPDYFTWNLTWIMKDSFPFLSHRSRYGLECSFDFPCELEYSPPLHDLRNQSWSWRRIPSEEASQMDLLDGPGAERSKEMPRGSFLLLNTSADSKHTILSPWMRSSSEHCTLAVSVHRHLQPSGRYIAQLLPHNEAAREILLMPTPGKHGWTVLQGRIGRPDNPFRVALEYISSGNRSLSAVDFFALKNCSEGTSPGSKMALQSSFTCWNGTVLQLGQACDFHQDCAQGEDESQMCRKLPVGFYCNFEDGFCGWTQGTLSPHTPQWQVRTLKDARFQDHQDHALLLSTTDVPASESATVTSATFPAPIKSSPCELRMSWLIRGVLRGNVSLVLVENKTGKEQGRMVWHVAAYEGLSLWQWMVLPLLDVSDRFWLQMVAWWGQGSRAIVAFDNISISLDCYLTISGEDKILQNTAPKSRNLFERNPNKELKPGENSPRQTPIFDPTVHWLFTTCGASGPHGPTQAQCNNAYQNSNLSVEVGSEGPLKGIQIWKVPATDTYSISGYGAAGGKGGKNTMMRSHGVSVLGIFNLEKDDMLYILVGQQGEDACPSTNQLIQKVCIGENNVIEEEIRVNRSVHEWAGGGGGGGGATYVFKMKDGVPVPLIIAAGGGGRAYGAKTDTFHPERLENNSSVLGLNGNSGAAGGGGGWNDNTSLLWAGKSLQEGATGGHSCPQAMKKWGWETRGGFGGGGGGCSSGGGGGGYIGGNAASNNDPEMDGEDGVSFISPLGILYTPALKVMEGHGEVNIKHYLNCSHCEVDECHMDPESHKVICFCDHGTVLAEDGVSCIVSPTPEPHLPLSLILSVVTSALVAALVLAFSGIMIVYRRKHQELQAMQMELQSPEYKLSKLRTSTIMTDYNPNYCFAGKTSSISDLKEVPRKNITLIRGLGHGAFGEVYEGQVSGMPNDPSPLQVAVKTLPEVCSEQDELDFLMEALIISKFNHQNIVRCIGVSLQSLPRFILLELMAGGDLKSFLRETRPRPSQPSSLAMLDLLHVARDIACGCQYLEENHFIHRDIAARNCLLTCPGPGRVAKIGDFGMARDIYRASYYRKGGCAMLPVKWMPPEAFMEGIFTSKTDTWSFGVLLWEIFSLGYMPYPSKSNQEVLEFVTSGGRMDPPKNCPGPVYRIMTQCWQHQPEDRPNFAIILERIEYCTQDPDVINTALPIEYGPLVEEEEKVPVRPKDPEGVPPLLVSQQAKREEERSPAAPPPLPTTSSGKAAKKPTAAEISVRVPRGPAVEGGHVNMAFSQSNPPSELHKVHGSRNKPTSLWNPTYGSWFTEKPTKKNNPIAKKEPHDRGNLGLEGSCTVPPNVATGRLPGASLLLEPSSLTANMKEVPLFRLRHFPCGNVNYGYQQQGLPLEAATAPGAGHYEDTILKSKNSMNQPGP
T4 sequence (P23458 849-1154): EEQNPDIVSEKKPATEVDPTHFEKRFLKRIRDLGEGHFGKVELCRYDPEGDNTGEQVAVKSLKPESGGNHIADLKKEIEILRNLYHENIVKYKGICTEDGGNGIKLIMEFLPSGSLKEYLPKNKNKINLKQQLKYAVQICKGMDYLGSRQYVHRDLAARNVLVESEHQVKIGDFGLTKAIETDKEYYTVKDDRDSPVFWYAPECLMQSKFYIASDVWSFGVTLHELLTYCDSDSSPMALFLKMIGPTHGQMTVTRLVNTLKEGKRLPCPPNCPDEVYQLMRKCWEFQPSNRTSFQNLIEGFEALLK
T1 sequence (O60674 828-1132): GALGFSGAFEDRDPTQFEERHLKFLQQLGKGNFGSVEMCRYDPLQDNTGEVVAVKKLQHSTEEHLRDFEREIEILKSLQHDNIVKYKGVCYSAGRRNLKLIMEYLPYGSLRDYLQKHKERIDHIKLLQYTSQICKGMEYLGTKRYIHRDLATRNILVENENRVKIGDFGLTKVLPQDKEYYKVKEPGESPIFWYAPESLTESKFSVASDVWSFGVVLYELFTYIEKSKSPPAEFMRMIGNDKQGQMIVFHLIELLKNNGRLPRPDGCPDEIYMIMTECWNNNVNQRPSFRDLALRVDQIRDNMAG
T3 sequence (P52333 781-1124): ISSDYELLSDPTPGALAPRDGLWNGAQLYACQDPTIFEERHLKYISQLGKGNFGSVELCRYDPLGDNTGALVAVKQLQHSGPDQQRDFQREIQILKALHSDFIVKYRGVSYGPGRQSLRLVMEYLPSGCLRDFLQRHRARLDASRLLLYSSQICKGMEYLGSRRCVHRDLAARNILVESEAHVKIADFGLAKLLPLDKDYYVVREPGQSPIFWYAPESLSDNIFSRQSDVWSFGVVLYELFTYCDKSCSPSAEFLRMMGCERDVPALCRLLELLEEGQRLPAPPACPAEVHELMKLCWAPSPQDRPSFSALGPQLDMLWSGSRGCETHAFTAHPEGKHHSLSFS

IC50 ([1]; Table B1) [nM]	ALK % of inhibition at a concentration of 500 nM or 1 mM [2, 6] [%]	IC50 ([3]; Table B1) [nM]	IC50 ([4]; Table B1) [nM]	IC50 ([5]; Table B1) [nM]	Compound	also measured
–	–	–	–	–	O=C(NCc1ccccc1)c1cc2cc(c1)OCCSc1cccc(c1)Nc1nc(ncc1Cl)N2 [Example D51, N-Benzyl-6-chloro-17-oxa-14-thia-2,4,8,24-tetraazatetracyclo[16.3.1.1(3,7).1(9,13)]tetracosa-1(22),3(24),4,6,9(23),10,12,18,20-nonaene-20-carboxamide trifluoroacetate]	IC50 ([1]; Table D1): 1.2 nM; IC50 ([2]; Table D1, 90 μM ATP): 910 nM; IC50 ([3]; Table D1): 4.5 nM; IC50 ([4]; Table D1): 14 nM; IC50 ([5]; Table D1): 1.8 nM
2.8	21	4.5	17	1.1	O=C(NCc1ccco1)Nc1ccc2cc1CCc1cccc(c1)Nc1ncc(Cl)c(n1)N2 [Example B117, N-[6-Chloro-2,4,8,22-tetraazatetracyclo[14.3.1.1(3,7).1(9,13)]docosa-1(20), 3(22),4,6,9(21),10,12,16,18-nonaen-12-yl]-N′-(2-furylmethyl)urea trifluoroacetate]	–
5.4	20	39	46	3.1	CC(=O)N1CC[C@@H](NC(=O)Nc2ccc3cc2CCc2cccc(c2)Nc2ncc(Cl)c(n2)N3)C1 [Example B177, N-[(3R)-1-Acetylpyrrolidin-3-yl]-N′-[6-chloro-2,4,8,22-tetraazatetracyclo[14.3.1.1(3,7).1(9,13)]docosa-1(20),3(22),4,6,9(21),10,12,16,18-nonaen-12-yl]urea trifluoroacetate]	–
0.1	–	0.44	0.48	0.69	N#Cc1cccc(S(=O)(=O)Nc2ccc3cc2CCc2cccc(c2)Nc2ncc(Cl)c(n2)N3)c1 [Example B153, N-[6-Chloro-2,4,8,22-tetraazatetracyclo[14.3.1.1(3,7).1(9,13)]docosa-1(20),3(22),4,6,9(21),10,12,16,18-nonaen-12-yl]-3-cyanobenzenesulfonamide trifluoroacetate]	IC50 ([2]; Table B1, cells without percent sign): 70 nM
–	–	–	–	–	O=C(CC1CCN(c2ncco2)CC1)Nc1ccc2cc1CCc1cncc(c1)Nc1ncc(Cl)c(n1)N2 [Example A246, N-[6-Chloro-2,4,8,18,22-pentaazatetracyclo[14.3.1.1(3,7).1(9,13)]docosa-1(20),3(22),4,6,9(21),10,12,16,18-nonaen-12-yl]-2-[1-(1,3-oxazol-2-yl)piperidin-4-yl]acetamide tris(trifluoroacetate)]	IC50 [1, 7]: 120 nM; ALK % of inhibition at a concentration of 500 nM or 1 mM [2, 8]: 39%; IC50 [3]: > 200 nM; IC50 [4, 9]: > 200 nM; IC50 [5, 10]: 15 nM
–	–	–	–	–	[O-][S+]1CCOc2cccc(c2)Nc2ncc(Cl)c(n2)Nc2cccc1c2 (centres unmarked) [Example D13, 6-Chloro-17-oxa-14-thia-2,4,8,24-tetraazatetracyclo[16.3.1.1(3,7).1(9,13)]tetracosa-1(22),3(24),4,6,9(23),10,12,18,20-nonaene 14-oxide trifluoroacetate]	IC50 ([1]; Table D1): 2.1 nM; IC50 ([2]; Table D1, 90 μM ATP): 1740 nM; IC50 ([3]; Table D1): 12 nM; IC50 ([4]; Table D1): 24 nM; IC50 ([5]; Table D1): 3.6 nM
–	–	–	–	–	CC(C)(C)NC(=O)N1CCC(CC(=O)Nc2ccc3cc2CCc2cncc(c2)Nc2ncc(Cl)c(n2)N3)CC1 [Example A113, N-(tert-Butyl)-4-(2-{[6-chloro-2,4,8,18,22-pentaazatetracyclo[14.3.1.1(3,7).1(9,13)]docosa-1(20),3(22),4,6,9(21),10,12,16,18-nonaen-12-yl]amino}-2-oxoethyl)piperidine-1-carboxamide bis(trifluoroacetate)]	IC50 [1, 7]: 54 nM; ALK % of inhibition at a concentration of 500 nM or 1 mM [2, 8]: 14%; IC50 [3]: 61 nM; IC50 [4, 9]: 238 nM; IC50 [5, 10]: 17 nM
–	–	–	–	–	O=C(NCc1ccccc1)Nc1cc2cc(c1)OCCSc1cccc(c1)Nc1nc(ncc1Cl)N2 [Example D66, N-Benzyl-N′-[6-chloro-17-oxa-14-thia-2,4,8,24-tetraazatetracyclo[16.3.1.1(3,7).1(9,13)]tetracosa-1(22),3(24),4,6,9(23),10,12,18,20-nonaen-20-yl]urea trifluoroacetate]	IC50 ([1]; Table D1): 3 nM; IC50 ([2]; Table D1, 90 μM ATP): 770 nM; IC50 ([3]; Table D1): 3.4 nM; IC50 ([4]; Table D1): 9.6 nM; IC50 ([5]; Table D1): 7.3 nM
45	–	> 400	> 400	3.4	CN(Cc1ccc2cc1CCc1cncc(c1)Nc1ncc(Cl)c(n1)N2)CC1CCN(C(=O)Nc2cccnc2)CC1 [Example B348, 4-{[{[6-Chloro-2,4,8,18,22-pentaazatetracyclo[14.3.1.1(3,7).1(9,13)]docosa-1(20),3(22),4,6,9(21),10,12,16,18-nonaen-12-yl]methyl}(methyl)amino]methyl}-N-pyridin-3-ylpiperidine-1-carboxamide tetrakis(trifluoroacetate)]	ALK % of inhibition at a concentration of 500 nM or 1 mM [2, 11]: 47%
300	–	90	> 400	58	COc1cccc(N2CCN(C(=O)Nc3ccc4cc3CCc3cncc(c3)Nc3ncc(Cl)c(n3)N4)CC2)c1 [Example B304, N-[6-Chloro-2,4,8,18,22-pentaazatetracyclo[14.3.1.1(3,7).1(9,13)]docosa-1(20),3(22),4,6,9(21),10,12,16,18-nonaen-12-yl]-4-(3-methoxyphenyl)piperazine-1-carboxamide tris(trifluoroacetate)]	ALK % of inhibition at a concentration of 500 nM or 1 mM [2, 11]: 67%
–	–	–	–	–	O=C(CC1CCN(C(=O)Nc2cccc(F)c2)CC1)Nc1ccc2cc1CCc1cncc(c1)Nc1ncc(Cl)c(n1)N2 [Example A147, 4-(2-{[6-Chloro-2,4,8,18,22-pentaazatetracyclo[14.3.1.1(3,7).1(9,13)]docosa-1(20),3(22),4,6,9(21),10,12,16,18-nonaen-12-yl]amino}-2-oxoethyl)-N-(3-fluorophenyl)piperidine-1-carboxamide bis(trifluoroacetate)]	IC50 [1, 7]: 1.9 nM; ALK % of inhibition at a concentration of 500 nM or 1 mM [2, 8]: 46%; IC50 [3]: 7.4 nM; IC50 [4, 9]: > 100 nM; IC50 [5, 10]: 0.3 nM
12	17	30	43	3.7	O=C(Nc1ccc2cc1CCc1cccc(c1)Nc1ncc(Cl)c(n1)N2)N[C@H]1CCNC1 [Example B167, N-[6-Chloro-2,4,8,22-tetraazatetracyclo[14.3.1.1(3,7).1(9,13)]docosa-1(20),3(22),4,6,9(21),10,12,16,18-nonaen-12-yl]-N′-[(3S)-pyrrolidin-3-yl]urea bis(trifluoroacetate)]	–
165	30	550	> 1000	141	CN(C(=O)Nc1ccc2cc1CCc1cccc(c1)Nc1ncc(Cl)c(n1)N2)[C@H]1CCN(Cc2ccccc2)C1 [Example B283, N-[(3S)-1-Benzylpyrrolidin-3-yl]-N′-[6-chloro-2,4,8,22-tetraazatetracyclo[14.3.1.1(3,7).1(9,13)]docosa-1(20),3(22),4,6,9(21),10,12,16,18-nonaen-12-yl]-N-methylurea]	–
0.4	29	1.9	2.4	0.9	CS(=O)(=O)NCCNC(=O)Nc1ccc2cc1CCc1cccc(c1)Nc1ncc(Cl)c(n1)N2 [Example B187, N-{2-[({[6-Chloro-2,4,8,22-tetraazatetracyclo[14.3.1.1(3,7).1(9,13)]docosa-1(20),3(22),4,6,9(21),10,12,16,18-nonaen-12-yl]amino}carbonyl)amino]ethyl}methanesulfonamide trifluoroacetate]	–
2	16	6.9	12	2.8	CC(CO)NC(=O)Nc1ccc2cc1CCc1cccc(c1)Nc1ncc(Cl)c(n1)N2 (centres unmarked) [Example B242, N-[6-Chloro-2,4,8,22-tetraazatetracyclo[14.3.1.1(3,7).1(9,13)]docosa-1(20),3(22),4,6,9(21),10,12,16,18-nonaen-12-yl]-N′-(2-hydroxy-1-methylethyl)urea trifluoroacetate]	–
–	–	–	–	–	Clc1cnc2nc1Nc1cccc(c1)SCc1cccc(c1)N2 [Example D1, 6-Chloro-14-thia-2,4,8,22-tetraazatetracyclo[14.3.1.1(3,7).1(9,13)]docosa-1(20),3(22),4,6,9(21),10,12,16,18-nonaene trifluoroacetate]	IC50 ([1]; Table D1): 9.6 nM; IC50 ([2]; Table D1, 90 μM ATP): 620 nM; IC50 ([3]; Table D1): 14 nM; IC50 ([4]; Table D1): 16 nM; IC50 ([5]; Table D1): 13 nM
